Reference: US20220135622A1, “ANTIBACTERIAL PEPTIDES AND METHODS OF USE” (priority 2019, published 2022)
≈ marks a conversion by molar mass, not a printed value. Where two headings read alike, the source gives them in different places. Square brackets hold non-standard residues; d marks the D form. Peptide text beside a SMILES is read from it. Bip = N[C@@H](Cc1ccc(-c2ccccc2)cc1)C(=O)O; aThr = C[C@H](O)[C@H](N)C(=O)O; NMeM = CN[C@@H](CCSC)C(=O)O; NMeA = CN[C@@H](C)C(=O)O; Orn = NCCC[C@H](N)C(=O)O; Dap = NC[C@H](N)C(=O)O

How the values were obtained:
[1] = tested on: E. coli BW25113; format: cell-based, Escherichia coli
In short: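 Growth inhibition: log-phase cells (OD600 ~0.001), peptides in 2-fold series up to 400–800 μM in MHB II, EDTA 0.5 mM (E. coli) or 0.125 mM (USA300), 4 h at 37 °C, ATP luminescence readout. MICs: inoculum at OD600 ~0.0002, with or without EDTA, 20 h at 37 °C, OD600 endpoint.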

[2] = tested on: S. aureus USA300; experiment: MIC assay, S. aureus USA300; format: cell-based, Staphylococcus aureus; details: Table 7
Experimental: (§1) Bacterial growth conditions. LB or Mueller Hinton II cation-adjusted broth (MHB II, BBL 212322) was prepared according to manufacturer's instructions and supplemented with arabinose at 0.02% for overnight growth or at indicated concentrations in the description of the figures. Bacterial cultures were grown at 37° C. When appropriate, media was supplemented with kanamycin (50 μg/mL), carbenicillin (50 μg/mL), chloramphenicol (12.5 or 25 μg/mL), hygromycin (200 μg/mL), and/or gentamicin (10 μg/mL).
(§2) Peptide sensitivity and MIC assays. Lyophilized peptides (Smartox Biotechnology, CPC Scientific. ABclonal) were solubilized to 10 mM in Tris buffer, pH 8, prior to making a 2-fold dilution series in MHBII cation adjusted broth with highest final assay concentration of 400-800 μM. Bacteria were grown to log phase and added to final OD600˜0.001. The final EDTA concentration was 0.5 mM for E. coli strains and 0.125 mM for USA300. The final volume of 10 μL/well in a 384 well black, clear bottom plate (Corning) was spun <1 min at <250×g and then incubated at 37° C. After 4 h, an equal volume (10 μL) of BacTiter-Glo™ (Promega) was added to each well and luminescence was read after 5 min on an EnVision plate reader (PerkinElmer). To measure the minimal inhibitory concentrations (MICs), bacteria from fresh overnight plates or log phase cultures were diluted with or without EDTA and peptides as described above to final OD600˜0.0002. Plates were incubated at 37° C. for 20 h before measuring OD600 with an EnVision plate reader.

[3] = tested on: E. coli imp4213; experiment: MIC assay, E. coli imp4213; format: cell-based, Escherichia coli; details: Table 7
Experimental: as §1, §2

[4] = tested on: E. coli ΔwaaD; experiment: MIC assay, E. coli ΔwaaD; format: cell-based, Escherichia coli; details: Table 7; + EDTA
Experimental: as §1, §2

[5] = tested on: K. pneumoniae; format: cell-based, Klebsiella pneumoniae; details: Table 8
In short: (§3)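 Dilute peptide 2-fold in cation-adjusted MHB II to a top final concentration of 400-800 μM. Add bacteria to final OD600 ~0.0002 along with EDTA (0.5 mM E. coli, 0.125 mM USA300). Incubate 20 h at 37° C, then measure OD600.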

[6] = tested on: A. baumannii; format: cell-based, Acinetobacter baumannii; details: Table 8
In short: as §3

[7] = tested on: P. aeruginosa; format: cell-based, Pseudomonas aeruginosa; details: Table 8
In short: as §3

[8] = tested on: E. coli ΔwaaD MCR-1; experiment: MIC assay, E. coli ΔwaaD MCR-1; format: cell-based, Escherichia coli; details: Table 7
Experimental: as §1, §2

[9] = tested on: E. coli ΔwaaD + vect.; experiment: MIC assay, E. coli ΔwaaD + vect.; format: cell-based, Escherichia coli; details: Table 7
Experimental: as §1, §2

| Compound | MIC E coli BW25113 + EDTA ([1]; Table 7) [µM] | MIC E. coli BW25113 ([1]; Table 7, no EDTA) [µM] | MIC S. aureus USA300 [2] [µM] | MIC E. coli imp4213 [3] | MIC E. coli ΔwaaD + EDTA [4] [µM] | MIC E. coli BW25113 ([1]; Table 8) [µM] | MIC K. pneumoniae [5] [µM] | MIC A. baumannii [6] [µM] | MIC R. aeruginosa [7] [µM] | MIC E coli ΔwaaD − MCR1 [8] | MIC E. coli ΔwaaD + vect. [9] |
| --- | --- | --- | --- | --- | --- | --- | --- | --- | --- | --- | --- |
| Ac-YPMTARRFLEKHGLL-NH2 [compound 11] | 400 | >800 | >800 | 200 µM | 400 | – | – | – | – | – | – |
| CSCC[C@@H](C(=O)N[C@H](C(=O)N(C)[C@@H](C)C(=O)N[C@@H](CCCNC(=N)N)C(=O)N[C@@H](CCCNC(=N)N)C(=O)N[C@@H](Cc1ccccc1)C(=O)N[C@@H](CC(C)C)C(=O)N[C@@H](CCC(=O)O)C(=O)N[C@@H](CCCCN)C(=O)N[C@@H](Cc1c[nH]c2ccccc12)C(=O)NCC(=O)N[C@@H](CC(C)C)C(=O)N[C@@H](CC(C)C)C(=O)N[C@@H](CCCNC(=N)N)C(N)=O)[C@@H](C)O)N(C)C(=O)[C@@H]1CCCN1C(=O)[C@H](Cc1ccc(O)cc1)NC(C)=O [compound 65] (Ac-YP[NMeM]T[NMeA]RRFLEKWGLLR-NH2) | – | – | 800 (≈ 1690 µg/mL) | 12.5 µM (≈ 26.3 µg/mL) | – | 200 (≈ 421 µg/mL) | 200 (≈ 421 µg/mL) | 50 (≈ 105 µg/mL) | 800 (≈ 1690 µg/mL) | 100 µM (≈ 211 µg/mL) | <6.25 µM |
| Ac-GSSYPMTARRFLEKHGL-NH2 [compound 8] | 800 | >800 | >800 | 200 µM | 800 | – | – | – | – | – | – |
| Ac-YPMNARRFLEKWGLLR-NH2 [compound 50] | – | – | >400 | 25 µM | – | 400 | 800 | 400 | 800 | 800/400 | 200 µM |
| Ac-GSSYPMTARRFLEKHGLL-NH2 [compound 7] | 400 | >800 | >800 | 200/400 | 400 | – | – | – | – | – | – |
| Ac-YPMTARRFLEKHGL-NH2 [compound 12] | 800 | – | – | – | 400 | – | – | – | – | – | – |
| Ac-YPMTMRRFLEKWGLLR-NH2 [compound 58] | – | – | >400 | 12.5 µM | – | 400 | 400 | 25 | >800 | 50 µM | 50/25 |
| CSCC[C@H](NC(=O)[C@@H]1CCCN1C(=O)[C@H](Cc1ccc(O)cc1)NC(C)=O)C(=O)N[C@@H](CN)C(=O)N[C@@H](C)C(=O)N[C@@H](CCCNC(=N)N)C(=O)N[C@@H](CCCNC(=N)N)C(=O)N[C@@H](Cc1ccccc1)C(=O)N[C@@H](CC(C)C)C(=O)N[C@@H](CCC(=O)O)C(=O)N[C@@H](CCCCN)C(=O)N[C@@H](Cc1c[nH]c2ccccc12)C(=O)NCC(=O)N[C@@H](CC(C)C)C(=O)N[C@@H](CC(C)C)C(=O)N[C@@H](CCCNC(=N)N)C(N)=O [compound 51] (Ac-YPM[Dap]ARRFLEKWGLLR-NH2) | – | – | >400 | 12.5 µM (≈ 25.8 µg/mL) | – | 100 (≈ 206 µg/mL) | 200 (≈ 413 µg/mL) | 100 (≈ 206 µg/mL) | 400 (≈ 825 µg/mL) | 200 µM (≈ 413 µg/mL) | 100 µM |
| Ac-YPMTAQRFLEKWGLLR-NH2 [compound 54] | – | >400 | >400 | 100 µM | – | – | >800 | >800 | >800 | >800 µM | 100 µM |
| Ac-YPMTARRFLAKWGLLR-NH2 [compound 57] | – | – | >400 | 12.5 µM | – | 200 | 400 | 100 | 200 | 100/700 | 100 µM |
| CSCC[C@H](NC(=O)[C@@H]1CCCN1C(=O)[C@H](Cc1ccc(O)cc1)NC(C)=O)C(=O)N[C@H](C(=O)N[C@@H](C)C(=O)N[C@@H](CCCNC(=N)N)C(=O)N[C@@H](CCCNC(=N)N)C(=O)N[C@@H](Cc1ccccc1)C(=O)N[C@@H](CC(C)C)C(=O)N[C@@H](CCC(=O)O)C(=O)N[C@@H](CCCCN)C(=O)N[C@@H](Cc1c[nH]c2ccccc12)C(=O)NCC(=O)N[C@@H](CC(C)C)C(=O)N[C@@H](CC(C)C)C(=O)N[C@@H](CCCNC(=N)N)C(N)=O)[C@H](C)O [compound 48] (Ac-YPM[aThr]ARRFLEKWGLLR-NH2) | – | – | >400 | 17.5 µM (≈ 36.4 µg/mL) | – | 400 (≈ 831 µg/mL) | 400 (≈ 831 µg/mL) | 200 (≈ 416 µg/mL) | 400 (≈ 831 µg/mL) | 400 µM (≈ 831 µg/mL) | 100 µM |
| Ac-GSSYPMTARRFLEKWGLLR-NH2 (N-terminus and C-terminus assumed) [compound 5] | 400 | – | – | – | 100 | – | – | – | – | – | – |
| CSCC[C@H](NC(=O)[C@@H]1CCCN1C(=O)[C@H](Cc1ccc(O)cc1)NC(C)=O)C(=O)N[C@H](C(=O)N[C@@H](C)C(=O)N[C@@H](CCCNC(=N)N)C(=O)N[C@@H](CCCNC(=N)N)C(=O)N[C@@H](Cc1ccc(-c2ccccc2)cc1)C(=O)N[C@@H](CC(C)C)C(=O)N[C@@H](CCC(=O)O)C(=O)N[C@@H](CCCCN)C(=O)N[C@@H](Cc1c[nH]c2ccccc12)C(=O)NCC(=O)N[C@@H](CC(C)C)C(=O)N[C@@H](CC(C)C)C(=O)N[C@@H](CCCNC(=N)N)C(N)=O)[C@@H](C)O [compound 55] (Ac-YPMTARR[Bip]LEKWGLLR-NH2) | – | – | >400 | 6.25 µM (≈ 13.5 µg/mL) | – | 100 (≈ 215 µg/mL) | 400 (≈ 862 µg/mL) | 25 (≈ 53.9 µg/mL) | >800 | 50 µM (≈ 108 µg/mL) | 25 µM |
| Ac-YPMTARRFLEKWGL-NH2 [compound 44] | – | >400 | >800 | 100 µM | – | – | >800 | >800 | 800 | >800 µM | 200 µM |
| Ac-YPMSARRFLEKWGLLR-NH2 [compound 49] | – | – | >400 | 25 µM | – | 400 | 800 | 200 | 400 | 400 µM | 100 µM |
| CSCC[C@H](NC(=O)[C@@H]1CCCN1C(=O)[C@H](Cc1ccc(O)cc1)NC(C)=O)C(=O)N[C@H](C(=O)N[C@@H](C)C(=O)N[C@@H](CCCN)C(=O)N[C@@H](CCCNC(=N)N)C(=O)N[C@@H](Cc1ccccc1)C(=O)N[C@@H](CC(C)C)C(=O)N[C@@H](CCC(=O)O)C(=O)N[C@@H](CCCCN)C(=O)N[C@@H](Cc1c[nH]c2ccccc12)C(=O)NCC(=O)N[C@@H](CC(C)C)C(=O)N[C@@H](CC(C)C)C(=O)N[C@@H](CCCNC(=N)N)C(N)=O)[C@@H](C)O [compound 53] (Ac-YPMTA[Orn]RFLEKWGLLR-NH2) | – | – | >400 | – | – | 400 (≈ 815 µg/mL) | 800 (≈ 1630 µg/mL) | 400 (≈ 815 µg/mL) | 400 (≈ 815 µg/mL) | 400 µM (≈ 815 µg/mL) | 100 µM |
| Ac-YPMTFRRFLEKWGLLR-NH2 [compound 59] | – | – | >400 | 12.5 µM | – | 400 | 800 | 50 | >800 | 50 µM | 25 µM |
| Ac-YPMTARRYLEKWGLLR-NH2 [compound 56] | – | >400 | >400 | 25 µM | – | – | 800 | 400 | 800 | 800 µM | 400 µM |
